Reference: patent US20050136472A1, “Methods for identification of ligands or modulators of 2871 receptor, a G-protein coupled receptor” (Millennium Pharmaceuticals, Inc., priority 2001, published 2005)

Key:
2871 receptor [1] = molecular target: T1, 2871 receptor (Homo sapiens, UniProt Q9BY21); assay: FLIPR calcium mobilization screening of 2871 receptor-transfected cells; type: cell-based; conditions: HEK293G16 cells stably transfected with 2871 receptor protein; for calcium mobilization response: concentration response; for EC50: calcium mobilization
T1 construct: encodes a full length 2871 receptor protein; myc (on only one of the two constructs made); expressed in transfected cells
Description: The 2871 receptor proteins were expressed in either human embryonic kidney 293 (HEK293) cells or CHO cells, both of which were stably transfected with cDNA encoding the promiscuous G-protein Gal6. A pEF6 vector (invitrogene) including a cDNA of 2871 comprising only the open reading frame (ORF) or 5′-myc tagged ORF was constructed. Cells were transfected with individual construct by lipofectamine (GIBCO) and selected in the presence of 20 ug/ml Blasticidine. After 3 weeks of selection, drug resistant cells were subcloned to obtain individual clones by limited dilution. To isolate cell lines stably expressing the 2871 receptor protein, about 48 clones were typically selected and analyzed. The expression level for myc-tagged 2871 on individual clones was evaluated by using anti-myc Ab staining and FACScan analysis. The expression level for un-tagged 2871 was evaluated by mRNA analysis using standard Taqman techniques and comparing with mRNA expression of myc-tagged 2871 clones. HEK293G16 or CHOG16 cells transfected with the vector alone serve as negative controls. The clones with the highest expression of 2871 as well as good morphology and growth were used for the screening experiments.
The functional screening procedure involves the use of transfected mammalian cells (CHO, HEK293, RBL, L1.2 etc.) containing a cDNA encoding the 2871 peptides to express the receptor on the cell surface. The cells were loaded with a calcium dependent dye such as fura 2 that produces a fluorescent signal when bound to calcium.
Cells were bound to a receptor agonist, such as Ap6A. Any change in fluorescent signal was measured over a defined period of time using a Fluorescence Imaging Plate Reader (FLIPR) (See Sullivan E, et al. Measurement of [Ca^2+] using the Fluorometric Imaging Plate Reader (FLIPR). Methods Mol Biol 1999;114:125-133.)
Cells were exposed to putative ligands and/or modulators and evaluated for agonist induced calcium mobilization. Cell lines transfected with vector alone served as negative controls in the same screening procedures for agents initially identified as putative ligands and/or modulators.
(§1) 2871 receptor-transfectants (IIEK293 (60,000 cells/well) or CHO cells (30,000 cells/well)) were seeded into poly-D-lysine-coated 96-well black-wall, clear-bottom microtiter plates 24 hours prior to assay. Cells were loaded for 1 hour with 2 μM Fluo-3-AM fluorescent indicator dye (Molecular Probes) in assay buffer (Hank's balanced salt solution, 10 mM HEPES, 0.1% BSA, 2.5 mM probenecid), washed three times with assay buffer, and then applied to FLIPR for analysis.
Bio-active lipids were screened at final concentration of 200 nM and 1 μM. Nucleotides were screened at final concentration of 1 μM and 2 μM. The ratio of net change (maximum subtracting minimum) in fluorescence over baseline was used to determine agonist response. Positive responses were confirmed by checking original raw responsive curve.
Concentration response curve data were fitted by Graphpad Prism 2.1 (Graphpad software, Inc., San Diego).

2871 receptor [2] = molecular target: T1, 2871 receptor; assay: Desensitization of calcium mobilization response by sequential adenosine nucleotide treatment (FLIPR); type: cell-based; conditions: for desensitization of calcium mobilization response to subsequent adenosine nucleotide treatment: additional treatment five to six minutes after initial dose
Description: as §1
Furthermore, calcium mobilization response was selectively desensitized treatment with adenosine nucleotide was followed by subsequent treatment with additional adenosine nucleotide. Initial treatment with adenosine nucleotide was followed by additional treatment five to six minutes after initial dose. Treatment and data analysis were as described supra.

T1 sequence (Q9BY21 whole entry): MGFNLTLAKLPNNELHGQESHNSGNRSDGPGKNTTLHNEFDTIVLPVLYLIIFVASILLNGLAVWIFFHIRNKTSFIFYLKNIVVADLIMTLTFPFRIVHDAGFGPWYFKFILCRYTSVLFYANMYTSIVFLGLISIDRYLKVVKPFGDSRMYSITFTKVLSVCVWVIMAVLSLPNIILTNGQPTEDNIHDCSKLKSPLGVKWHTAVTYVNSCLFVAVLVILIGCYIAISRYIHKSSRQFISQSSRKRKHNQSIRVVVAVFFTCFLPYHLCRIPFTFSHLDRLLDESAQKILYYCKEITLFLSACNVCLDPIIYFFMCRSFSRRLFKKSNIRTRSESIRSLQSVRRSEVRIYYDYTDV

Row | Molecule | calcium mobilization response (2871 receptor [1]) | EC50 (2871 receptor [1]) [nM] | desensitization of calcium mobilization response to subsequent adenosine nucleotide treatment (2871 receptor [2]) | agonist activity after initial AMP treatment (2871 receptor [2]; second treatment five to six minutes after initial AMP dose)
1 | di-adenosine tetraphosphate [AP4A] | dose-dependent | 1800 to 2000 |  | 
2 | Nc1ncnc2c1ncn2[C@@H]1O[C@H](COP(=O)(O)OP(=O)(O)OP(=O)(O)OC[C@H]2O[C@@H](n3cnc4c(N)ncnc43)[C@H](O)[C@@H]2O)[C@@H](O)[C@H]1O [AP3A] | dose-dependent |  |  | 
3 | di-adenosine hexaphosphate [AP6A] | dose-dependent | 200 to 400 | effectively desensitized 2871 receptor to subsequent treatment with either AP6A or AMP | retained agonist activity
4 | Nc1ncnc2c1ncn2[C@@H]1O[C@H](COP(=O)(O)O)[C@@H](O)[C@H]1O [AMP, adenosine monophosphate] | dose-dependent | 500 to 800 | conferred desensitization to subsequent AMP treatment | 
5 | Nc1ncnc2c1ncn2C1OC(COP(=O)(O)OP(=O)(O)OCC2OC(O)C(O)C2O)C(O)C1O (stereo not shown) [ADP-ribose, adenosine di-phosphate-ribose] | dose-dependent | 400 to 800 |  | 
6 | Nc1ncnc2c1ncn2[C@@H]1O[C@H](COP(=O)(O)OP(=O)(O)OC[C@H]2O[C@@H](n3cnc4c(N)ncnc43)[C@H](O)[C@@H]2O)[C@@H](O)[C@H]1O [AP2A] | dose-dependent |  |  | 
7 | Nc1ncnc2c1ncn2[C@@H]1O[C@H](COP(=O)(O)OP(=O)(O)O[C@H]2O[C@H](CO)[C@@H](O)[C@H](O)[C@@H]2O)[C@@H](O)[C@H]1O [ADP-mannose] | dose-dependent |  |  | 
8 | di-adenosine pentaphosphate [AP5A] | dose-dependent | 1200 to 1800 |  | 
